Assay results reported in patent US20240116882A1, “NOVEL BENZOTRIAZOLE DERIVATIVE HAVING INHIBITORY ACTIVITY AGAINST ECTONUCLEOTIDE PYROPHOSPHATASE-PHOSPHODIESTERASE, AND USE THEREOF” (TXINNO BIOSCIENCE INC., priority 2021, published 2024).
Structures can show the parent of a compound that is named as a salt.

Biological target: T1, human recombinant ENPP1 enzymes (Homo sapiens, UniProt P22413)
T1 construct: purchased R & D systems
T1 sequence (P22413 1-925): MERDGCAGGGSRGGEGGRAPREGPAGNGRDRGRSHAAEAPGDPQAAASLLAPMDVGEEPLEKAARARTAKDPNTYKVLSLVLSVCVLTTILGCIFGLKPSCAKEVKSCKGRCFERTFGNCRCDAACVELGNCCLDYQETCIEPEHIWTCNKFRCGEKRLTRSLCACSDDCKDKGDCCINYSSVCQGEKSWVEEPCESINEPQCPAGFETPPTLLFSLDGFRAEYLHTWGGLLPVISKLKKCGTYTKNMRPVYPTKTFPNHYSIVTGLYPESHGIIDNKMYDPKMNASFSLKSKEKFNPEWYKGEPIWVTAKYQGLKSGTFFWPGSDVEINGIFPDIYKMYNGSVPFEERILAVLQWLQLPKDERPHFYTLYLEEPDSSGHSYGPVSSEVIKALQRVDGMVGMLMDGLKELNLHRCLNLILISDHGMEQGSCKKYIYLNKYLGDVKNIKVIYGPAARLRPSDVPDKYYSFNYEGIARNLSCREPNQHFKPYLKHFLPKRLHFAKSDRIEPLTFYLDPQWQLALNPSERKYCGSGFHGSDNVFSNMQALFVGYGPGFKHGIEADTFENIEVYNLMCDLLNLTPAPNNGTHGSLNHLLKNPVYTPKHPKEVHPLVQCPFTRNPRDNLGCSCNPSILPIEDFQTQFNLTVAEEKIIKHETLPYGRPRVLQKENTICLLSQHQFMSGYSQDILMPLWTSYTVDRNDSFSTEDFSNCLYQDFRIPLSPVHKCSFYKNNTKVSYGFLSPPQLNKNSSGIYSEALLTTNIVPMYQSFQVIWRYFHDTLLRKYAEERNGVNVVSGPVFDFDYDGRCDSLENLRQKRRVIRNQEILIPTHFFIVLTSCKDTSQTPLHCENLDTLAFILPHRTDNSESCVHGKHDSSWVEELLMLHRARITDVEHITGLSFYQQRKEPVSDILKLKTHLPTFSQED
Assay: ENPP1 Enzyme Assay with cGAMP Substrate (AMP-Glo)
Format: biochemical
Conditions: human recombinant ENPP1, cGAMP 5 μM, 37° C. 90 minutes, AMP-Glo luminescence; read-out: Enzymatic activity (IC50)
Procedure: ENPP1 hydrolyzes nucleotides or nucleotide derivatives to produce nucleoside-5′-monophosphate and pyrophosphate. In addition, ENPP1 hydrolyzes 2′,3′-cGAMP to produce 5′-adenosine monophosphate (AMP) and 5′-guanosine monophosphate (GMP). AMP produced from the reaction is measured using the AMP-Glo® kit (Promega). The AMP-Glo® kit contains two reagents. The first reagent terminates the AMP-producing enzymatic reaction, removes ATP and converts the produced AMP into ADP. The second reagent converts ADP into ATP which is used to generate luminescence in the luciferase reaction. The amount of luminescence measured is proportional to the amount of AMP produced by ENPP1.
The final reaction solution contains 50 mM Tris (pH 8.5) buffer, 250 mM NaCl, 0.5 mM CaCl2), 1 μM ZnCl2, 5% glycerol and 1% DMSO. Serially diluted ENPP1 inhibitors (typically in the range of 10 μM to 0.5 nM) were pre-stored with human recombinant ENPP1 enzymes (R & D systems) at 3 ng/reaction and room temperature (RT) for 5 to 10 minutes. The reaction was initiated by addition of cGAMP (at a final concentration of 5 μM) and reacted at 37° C. for 90 minutes. At the end of the reaction, 10 μl of the AMP-Glo first reagent was added to stop the reaction and the result was stored at room temperature for 1 hour. After storage, 20 μl of an AMP detection solution (a mixture of AMP-Glo II reagent and Kinase-Glo at a ratio of 1:100) was added and stored at room temperature for 1 hour. Luminescence signals were measured using a Victor® plate reader (Perkin Elmer). The maximal activity control (containing enzymes and substrates in the presence of 1% DMSO; MAX) and the minimal activity control (containing substrates and 1% DMSO; MIN) were evaluated simultaneously. In each experiment, serially diluted reference ENPP1 inhibitors were tested as well. IC50, indicating % residual activity versus compound concentration was determined by fitting inhibition curves using the 3-parameter analysis of GraphPad Prism® software. Serially diluted samples of one compound were tested two or more times and an average IC50 of each compound was calculated.

IC50 [µM]	SMILES
< 1	COc1cc2nnn(-c3ccc4c(c3)CC(NS(N)(=O)=O)C4)c2cc1OC (stereo not drawn) [Example 103, N-(5-(5,6-dimethoxy-1H-benzo[d][1,2,3]triazol-1-yl)-dihydro-1H-inden-2-yl)sulfamide]
> 10	COc1cccc2c1nnn2-c1ccc(CN)cc1 [Example 6, 4-(4-methoxy-1H-benzo[d][1,2,3]triazol-1-yl)phenyl)methanamine Hydrochloride]
> 10	NCc1ccc(-n2nnc3cc(OC(F)F)ccc32)c(F)c1 [Example 24]
< 1	COc1ccc2c(c1)nnn2-c1ccc(CP(=O)(O)O)cc1 [Example 119]
1 to 10	COc1cc(OC)c2nnn(-c3ccc(CNS(N)(=O)=O)cc3)c2c1 [Example 54, N-(4-(4,6-dimethoxy-1H-benzo[d][1,2,3]triazol-1-yl)benzyl)sulfamide]
< 1	NS(=O)(=O)NCc1ccc(-n2nnc3cc(O)ccc32)c(F)c1 [Example 74, N-(3-fluoro-4-(5-hydroxy-1H-benzo[d][1,2,3]triazol-1-yl)benzyl)sulfamide]
< 1	COc1ccc2c(c1)nnn2-c1ccc(CNS(N)(=O)=O)c(F)c1 [Example 60, N-(2-fluoro-4-(5-methoxy-1H-benzo[d][1,2,3]triazol-1-yl)benzyl)sulfamide]
> 10	COc1ccc2c(c1)nnn2C1CCN(S(N)(=O)=O)CC1 [Example 42, 4-(5-methoxy-1H-benzo[d][1,2,3]triazol-1-yl)piperidine-1-sulfonamide]
< 1	COc1ccc2c(c1)nnn2C1CCC(CNS(N)(=O)=O)C1 (stereo not drawn) [Example 41, N-((3-(5-methoxy-1H-benzo[d][1,2,3]triazol-1-yl)cyclopentyl)methyl)sulfamide]
< 1	COc1ccc2c(c1)nnn2-c1ccc2c(c1)CC(NS(N)(=O)=O)C2 (stereo not drawn) [Example 95]
< 1	COc1ccc2c(c1)nnn2-c1ccc([C@H](C)NS(N)(=O)=O)cc1 [Example 83, (S)—N-(1-(4-(5-methoxy-1H-benzo[d][1,2,3]triazol-1-yl)phenyl)ethyl)sulfamide]
< 1	COc1ccc2c(c1)nnn2-c1ccc(CN)cc1Cl [Example 15, 3-chloro-4-(5-methoxy-1H-benzo[d][1,2,3]triazol-1-yl)phenyl)methanamine Hydrochloride]
> 10	CCOc1ccc2c(c1)nnn2-c1ccc(CNS(N)(=O)=O)cc1F [Example 76, N-(4-(5-ethoxy-1H-benzo[d][1,2,3]triazol-1-yl)-3-fluorobenzyl)sulfamide]
> 10	CC(C)Oc1ccc2c(c1)nnn2-c1ccc(CN)cc1F [Example 20]
1 to 10	COc1cc2nnn(-c3ccc(CN)cc3)c2cc1OC [Example 10, 4-(5,6-dimethoxy-1H-benzo[d][1,2,3]triazol-1-yl)phenyl)methanamine Hydrochloride]
> 10	COc1ccc2c(c1)nnn2C12CC(CN)(C1)C2 [Example 30]
< 1	COc1ccc2c(c1)nnn2-c1ccc(CNS(N)(=O)=O)cc1C [Example 66, N-(4-(5-methoxy-1H-benzo[d][1,2,3]triazol-1-yl)-3-methylbenzyl)sulfamide]
> 10	COc1ccc2c(c1)nnn2C1CCC(CN)CC1 (stereo not drawn) [Example 2]
> 10	COc1cccc2nnn(-c3ccc(CN)cc3)c12 [Example 8, 4-(7-methoxy-1H-benzo[d][1,2,3]triazol-1-yl)phenyl)methanamine Hydrochloride]

IC50 [µM]	SMILES
> 10	CNCc1ccc(-n2nnc3cc(OC)ccc32)cc1 [Example 12, 1-(4-(5-methoxy-1H-benzo[d][1,2,3]triazol-1-yl)phenyl)-N-methylmethanamine Hydrochloride]
< 1	COc1ccc2c(c1)nnn2C1CCC(CNS(N)(=O)=O)CC1 (stereo not drawn) [Example 43, N-((4-(5-methoxy-1H-benzo[d][1,2,3]triazol-1-yl)cyclohexyl)methyl)sulfamide]
> 10	NS(=O)(=O)NCc1ccc(-n2nnc3cc(C(F)(F)F)ccc32)c(F)c1 [Example 85]
> 10	CC(F)(F)c1ccc2c(c1)nnn2-c1ccc(CN)cc1F [Example 22]
< 1	COc1cc2nnn(-c3ccc(CNS(N)(=O)=O)cc3F)c2cc1OC [Example 71, N-(4-(5,6-dimethoxy-1H-benzo[d][1,2,3]triazol-1-yl)-3-fluorobenzyl)sulfamide]
< 1	COc1ccc2c(c1)nnn2-c1ccc(CNS(N)(=O)=O)cc1Cl [Example 59, N-(3-chloro-4-(5-methoxy-1H-benzo[d][1,2,3]triazol-1-yl)benzyl)sulfamide]
> 10	COc1ccc2c(c1)nnn2-c1ccc2c(c1)CNCC2 [Example 25, 7-(5-methoxy-1H-benzo[d][1,2,3]triazol-1-yl)-1,2,3,4-tetrahydroisoquinoline Hydrochloride]
1 to 10	COc1ccc2nn(Cc3ccc(CNS(N)(=O)=O)cc3)nc2c1 [Example 110, N-(4-((5-methoxy-2H-benzo[d][1,2,3]triazole-2-yl)benzyl)sulfamide Hydrochloride]
> 10	COc1ccc2nnn(-c3ccc(CN)cc3)c2c1 [Example 7, 4-(6-methoxy-1H-benzo[d][1,2,3]triazol-1-yl)phenyl)methanamine Hydrochloride]
> 10	NS(=O)(=O)NCc1ccc(-n2nnc3cc(C(F)(F)F)ccc32)cc1 [Example 84]
< 1	COc1ccc2c(c1)nnn2-c1cc2c(cc1F)CN(S(N)(=O)=O)CC2 [Example 101, 7-fluoro-6-(5-methoxy-1H-benzo[d][1,2,3]triazol-1-yl)-3,4-dihydroisoquinoline-2(1H)-sulfonamide]
< 1	COc1ccc2c(c1)nnn2-c1ccc(CNS(N)(=O)=O)cc1 [Example 51, N-(4-(5-methoxy-1H-benzo[d][1,2,3]triazol-1-yl)benzyl)sulfamide Hydrochloride]
1 to 10	COc1ccc2c(c1)nnn2Cc1ccc(NS(N)(=O)=O)cc1 [Example 104, N-(4-((5-methoxy-1H-benzo[d][1,2,3]triazol-1-yl)methyl)phenyl)sulfamide Hydrochloride]
1 to 10	COc1ccc2c(c1)nnn2-c1ccc(N)cc1 [Example 4, 4-(5-methoxy-1H-benzo[d][1,2,3]triazol-1-yl)aniline Hydrochloride]
< 1	COc1ccc2c(c1)nnn2-c1ccc(CNS(N)(=O)=O)cc1F [Example 61, N-(4-(5-methoxy-1H-benzo[d][1,2,3]triazol-1-yl)-3-fluorobenzyl)sulfamide]
< 1	COc1cc2nnn(-c3ccc(CNS(N)(=O)=O)cc3F)c2cc1C [Example 70, N-(3-fluoro-4-(5-methoxy-6-methyl-1H-benzo[d][1,2,3]triazol-1-yl)benzyl)sulfamide]
< 1	COc1ccc2c(c1)nnn2-c1ccc(CNS(N)(=O)=O)nc1 [Example 78]
> 10	NS(=O)(=O)NCc1ccc(-n2nnc3cc(OC(F)(F)F)ccc32)cc1 [Example 89]
1 to 10	COc1ccc2c(c1)nnn2-c1ccc(CNS(N)(=O)=O)cc1OC [Example 68, N-(3-methoxy-4-(5-methoxy-1H-benzo[d][1,2,3]triazol-1-yl)benzyl)sulfamide]

SMILES	IC50 [µM]
CCOP(=O)(NCc1ccc(-n2nnc3cc(OC)ccc32)c(F)c1)OCC [Example 117, diethyl-(3-fluoro-4-(5-methoxy-1H-benzo[d][1,2,3]triazol-1-yl)benzyl)phosphoamidite]	> 10
